For one series, the system named is BALB/c mice. The settings on record: oral, five consecutive days, LN‐7 25, 50, 75 mg kg−1, acyclovir 50 mg kg−1, 12 days. The protocol: BALB/c mice were purchased from Charles River Laboratories Spain and maintained at the Animal Facility of the CBM (Madrid, Spain). The toxicity of the test compound LN‐7 was investigated in BALB/c mice dosed as a solution at 25, 50, and 75 mg kg^−1. The compound was formulated in 3% DMSO + 10% solutol HS‐15 + 87% double‐distilled water (20 mg mL^−1). Animals had free access to food and water throughout each study. […] Compounds were orally administered for five consecutive days. Animals were monitored daily for clinical signs (piloerection, lethargy, eye closure), body weight loss, and survival. Oral administration and symptom monitoring was performed by researchers that were aware of the treatment condition (group allocation) for each animal. […] Animals with score 4 were defined as the humane endpoint on which the animal must be euthanized. On day 12, mice were sacrificed and whole blood was obtained by cardiac puncture. Several parameters were analyzed to monitor renal, hepatic, and immunological basic profiles. Body weight was also monitored to exclude weight loss or lack of weight gain that would be indicative of toxicity.

A further series deals with HSV‐1. The series can be described thus: HSV‐1 infection model in BALB/c mice. In kind it is in vivo. Particulars: for clinical symptoms of the infection / morbidity: oral LN‐7 75 mg kg−1 or acyclovir 50 mg kg−1; for survival: 8 days postinfection.
Series [1] can be described thus: Cell viability (MTT) in Vero cells. The settings on record: African green monkey.
For series [2], the system named is ACV‐resistant HSV‐1 strain F‐TKGF. Kind of series: Antiviral assay, ACV‐resistant HSV‐1 strain F‐TKGF in Vero cells. Particulars: Human alphaherpesvirus 1, Vero, read-out: EC50 against ACV‐resistant strain F‐TKGF.
The next series has as its target HSV‐1 pUL15C (Human herpesvirus 1, UniProt P04295). The series can be described thus: HSV‐1 pUL15C nuclease inhibition enzymatic assay (32P‐labeled 33‐bp dsDNA substrate). The class given is biochemical. The settings on record: for inhibition at 50 µM: read-out: percentage inhibition of pUL15C nuclease activity at the highest concentration tested; for IC50: concentration required to inhibit by 50% the pUL15C nuclease activity, 37 °C, 1 mM MnCl2, 15 min.

A short description of series [3]: Pharmacokinetics studies in rats. The class given is in vivo. The settings on record: male, Sprague-Dawley, plasma, rat. The protocol:
Six male Sprague‐Dawley rats (180–200 g) were randomly divided into two groups to receive […] of LN‐7 at 2 mg kg^−1 (iv administration) or 10 mg kg^−1 (po administration). LN‐7 was dissolved in DMSO, and then diluted at a concentration of 1 mg mL^−1 in 3% DMSO, 10% solutol HS‐15, and 87% double‐distilled water for dosing. Rats were purchased from Beijing Vital River Laboratory Animal Technology Co., Ltd. (Qualification No. SCXK(SH) 2021‐0011). Animals were subjected to 12 h alternating light and dark cycles, ad libitum access to drinking water and food, and fasting for 12 h prior to the initiation of treatments. For the oral dose at 10 mg kg^−1, blood samples were collected at 0.083, 0.25, 0.5, 1, 2, 4, 6, 8, and 24 h postadministration. For the intravenous dose (at 2 mg kg^−1), blood samples were collected at 0.083, 0.25, 0.5, 1, 2, 4, 6, 8, and 24 h postadministration. Twenty µL of blood were mixed with a 200 µL solution of methanol:acetonitrile (1:1), vortexed for 5 min, and centrifuged (4000 rpm, 4 °C, 10 min) to obtain plasma within 30 min of sampling. The supernatant was analyzed by liquid chromatography–tandem mass spectrometry. Chromatographic separation was performed using an ACQUITY UPLC HSS T3 column (2.1 × 50 mm, 1.8 µm). […] Gradient elution was carried out at a flow rate of 0.8 mL min^−1. […] Mass spectrometric detection was performed with an electrospray ionization source operating in positive ion mode. Quantification was achieved using multiple reaction monitoring with the following transitions: m/z 403.15.
Pharmacokinetic parameters such as AUC, T 1/2, and C max were calculated with the WinNonlin software.

Series [4] concerns recombinant HSV‐2 GFP strain. The settings on record: Human alphaherpesvirus 2, Vero, read-out: EC50 against recombinant HSV‐2 GFP strain.
The subject of series [5] is HSV‐2 strains G and Lovelace. Kind of series: Antiviral assay, HSV‐2 strains G and Lovelace in Vero cells (viral titer, TCID50). The settings on record: 10 µM, 24 h post‐infection.
The mark [6] stands for this setting: treatment after infection, days 0-3 p.i., LN‐7 75 mg kg−1, acyclovir 50 mg kg−1 or both.

Sequence of HSV‐1 pUL15C (P04295 471-735): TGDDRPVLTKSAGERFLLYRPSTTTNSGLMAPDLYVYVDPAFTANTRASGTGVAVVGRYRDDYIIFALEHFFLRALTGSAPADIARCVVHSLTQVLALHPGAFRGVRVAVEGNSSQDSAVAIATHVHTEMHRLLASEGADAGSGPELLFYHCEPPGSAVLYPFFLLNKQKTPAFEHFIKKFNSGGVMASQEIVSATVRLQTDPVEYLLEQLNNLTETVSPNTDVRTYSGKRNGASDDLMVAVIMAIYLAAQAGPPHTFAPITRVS

For the compound `Nc1nc2c(ncn2COCCO)c(=O)[nH]1` [Acyclovir (ACV), Acyclovir, reference compound], the “toxic symptoms or mortality” value with BALB/c mice was “did not show any toxic symptoms or mortality”. For the same compound, the “clinical symptoms of the infection / morbidity” value with HSV‐1 (prophylactic setting) is “Clinical symptoms of the infection were observed”. In the series on HSV‐1 (setting [6]), the clinical symptoms entry was “clinical symptoms were alleviated”, the piloerection entry is recorded as “piloerection was observed” and the survival entry is recorded as “survived until the end of the experiment”. The CC50 (in general, the concentration at which the toxic effect on the cells reaches its halfway point) at 24 h in series [1] (Vero cells) is greater than 100 µM. In addition, the 50% effective concentration (EC50) (in general, the concentration at which the effect is half-maximal) in series [2] is greater than 20 µM.
`O=C1c2c(O)c(=O)ccn2N([C@@H]2c3ccccc3SCc3c2ccc(F)c3F)[C@@H]2COCCN12` [Baloxavir acid, reference compound]: the 50% cytotoxic concentration (CC50) at 24 h in series [1] was greater than 100 µM.
`COC(=O)OCOc1c2n(ccc1=O)N([C@@H]1c3ccccc3SCc3c1ccc(F)c3F)[C@@H]1COCCN1C2=O` [Baloxavir marboxil, reference compound] had a CC50 at 24 h in series [1] greater than 100 µM.
In series [1] (Vero cells), `O=C1c2c(O)c(=O)ccn2N(Cc2ccc(C(F)(F)F)cc2)[C@@H]2COCCN12` [Compound 7] yielded a 50% cytotoxic concentration (CC50) at 24 h greater than 100 µM.
Still for that read-out and setting: under `O=C1c2c(O)c(=O)ccn2N(Cc2ccc(Cl)c(F)c2)[C@@H]2COCCN12` [Compound 10] stands greater than 100 µM.
`O=C1c2c(O)c(=O)ccn2N(Cc2ccc3ccc4cccc5ccc2c3c45)[C@@H]2COCCN12` [Compound 12]: at HSV‐1 pUL15C, the inhibition at 50 µM was 65.4% and the IC50 (in general, the concentration needed to halve the response being measured) is greater than 30 µM.
As for `O=C1c2c(O)c(=O)ccn2N(Cc2ccc(-c3ccco3)cc2)[C@@H]2COCCN12` [Compound 16, (R)-12-(4-(furan-2-yl)benzyl)-7-hydroxy-3,4,12,12a-tetrahydro-1H-[1,4] oxazi no[3,4-c] pyrido[2,1-f] [1,2,4] triazine-6,8-dione], the 50% cytotoxic concentration (CC50) at 24 h in series [1] (Vero cells) was greater than 100 µM.
In the case of `O=C1c2c(O)c(=O)ccn2N(Cc2ccc(-c3ccccc3)cc2)[C@@H]2COCCN12` [Compound 17, (R)-12-([1,1'-biphenyl] -4-ylmethyl)-7-hydroxy-3,4,12,12a-tet rahydro-1H-[1,4] oxazino[3,4-c] pyrido[2,1-f] [1,2,4] triazine-6,8-dione], in series [3] (IV 2 mg/Kg), the AUC(0-inf) (commonly the area under the concentration-time curve extrapolated to infinity) was 1230 ± 182 ng·h/mL, the highest level (Cmax) was 782 ± 63.2 ng/mL, the time to peak (Tmax) (usually the time from dosing to the highest level) came to 0.0833 h and the clearance (usually the volume of plasma or blood freed of the substance per unit of time) is 27.4 mL/min/kg. Also, the half-life (commonly the time needed for the level to fall by half in the phase considered) in series [3] (IV 2 mg/Kg) is 6.24 ± 1.24 h. For the same compound, the Vd in series [3] (IV 2 mg/Kg, read-out: Vz) was 15.1 ± 4.05 L/kg. In addition, in series [3] (PO 10 mg/Kg), the AUC(0-inf) turned out to be 2980 ± 763 ng·h/mL, the peak concentration (Cmax) (usually the maximum level reached in the sampled fluid or tissue) stood at 573 ± 152 ng/mL, the time to peak (Tmax) came to 2 h and the half-life is 5.54 ± 0.676 h. The “toxic symptoms or mortality” value in the series on BALB/c mice is given as “did not show any toxic symptoms or mortality”. Besides, the “HSV‐1 titers in lung, brain, olfactory bulb and spleen tissues” value in the series on HSV‐1 (prophylactic setting, oral LN‐7 75 mg kg−1, days −1 to 3 p.i., day 8 p.i.) was “decreased around one to two orders of magnitude”. Also, in the series on HSV‐1 (prophylactic setting), the “clinical symptoms of the infection / morbidity” value is “morbidity was higher for the LN‐7‐treated animals”. In the series with HSV‐1 (setting [6]), the clinical symptoms result is recorded as “clinical symptoms were alleviated”, the piloerection entry is given as “piloerection was observed” and the survival result is listed as “survived until the end of the experiment”. The “viral titers in tissues (lungs, brain, olfactory bulb, kidneys, spleen)” value in the series with HSV‐1 (treatment after infection, days 0-3 p.i., LN‐7 75 mg kg−1, acyclovir 50 mg kg−1 or both, day 8 p.i.) is on record as “significant reductions in the viral titers in all analyzed tissues of treated mice, except for kidney tissue”. The compound further displayed a CC50 at 24 h in series [1] (Vero cells) of 38.8 µM. The EC50 in series [2] stood at 3.2 ± 0.3 µM. In series [4], the EC50 worked out at 3.6 ± 1.8 µM. For the same compound, the “reduction in the viral titer” value in series [5] was “reduction of two orders of magnitude”.
With `O=C1c2c(O)c(=O)ccn2N(Cc2ccc(-c3ccc4[nH]ccc4c3)cc2)[C@@H]2COCCN12` [Compound 19], on HSV‐1 pUL15C, the inhibition at 50 µM came to 51.5% and the half-maximal inhibitory concentration (IC50) was greater than 30 µM.
With `O=C1c2c(O)c(=O)ccn2N(Cc2ccc(-c3ccc(F)cc3)cc2)[C@@H]2COCCN12` [Compound 30], the CC50 at 24 h in series [1] (Vero cells) was greater than 66.5 µM.
With `O=C1c2c(O)c(=O)ccn2N(Cc2ccc(-c3ccc(Cl)cc3)cc2)[C@@H]2COCCN12` [Compound 31], at HSV‐1 pUL15C, the inhibition at 50 µM turned out to be 48.1% and the IC50 was greater than 30 µM.
For `O=C1c2c(O)c(=O)ccn2N(Cc2ccc(-c3ccc([N+](=O)[O-])cc3)cc2)[C@@H]2COCCN12` [Compound 32], in that order: 74.3% and greater than 30 µM.
`COc1ccc(-c2ccc(CN3[C@@H]4COCCN4C(=O)c4c(O)c(=O)ccn43)cc2)cc1` [Compound 33] gave an IC50 on HSV‐1 pUL15C of 19.4 ± 1.3 µM.
As to `O=C1c2c(O)c(=O)ccn2N(Cc2ccc(-c3ccc(OC(F)(F)F)cc3)cc2)[C@@H]2COCCN12` [Compound 34], the half-maximal cytotoxic concentration (CC50) at 24 h in series [1] (Vero cells) was greater than 52.8 µM.
`O=C(Nc1ccccc1)c1ccc(-c2ccc(CN3[C@@H]4COCCN4C(=O)c4c(O)c(=O)ccn43)cc2)cc1` [Compound 40]: on HSV‐1 pUL15C, the inhibition at 50 µM came to 42.7% and the IC50 was greater than 30 µM.
Consider `CC(C)c1ccc(O)c(=O)c(O)c1` [β‐thujaplicinol, reference compound], for which the CC50 at 24 h in series [1] (Vero cells) is greater than 100 µM.
